From the NIST ThermoML archive (doi:10.1021/je700022b)
± gives the expanded uncertainty stated by the source.

Test: xn = mol fraction of the nth substance listed
Conditions: Liquid; for mass density: Constant-volume piezometry

CCCCn1cc[n+](C)c1.F[P-](F)(F)(F)(F)F [1-butyl-3-methylimidazolium hexafluorophosphate] + O=C=O
Conditions	mass density, 293.15 K [kg/m3]	mass density, 313.15 K [kg/m3]	mass density, 333.15 K [kg/m3]	mass density, 353.15 K [kg/m3]	viscosity, 293.15 K [mPa·s]	viscosity, 313.15 K [mPa·s]	viscosity, 333.15 K [mPa·s]	viscosity, 353.15 K [mPa·s]
10000 kPa, x2 = 0.056	1371 ± 6	1350 ± 5	1327 ± 5	1306 ± 5	372 ± 51	119 ± 10	49.3 ± 3.1	25.2 ± 1.6
10000 kPa, x2 = 0.123	1368 ± 6	1342 ± 5	1313 ± 5	1286 ± 5	277 ± 34	84.8 ± 5.9	40.6 ± 2.5	21.6 ± 1.4
10000 kPa, x2 = 0.229	1361 ± 5	1329 ± 5	1293 ± 5	1260 ± 5	135 ± 12	54.1 ± 3.3	27.2 ± 1.7	15.8 ± 1
10000 kPa, x2 = 0.332	1354 ± 5	1313 ± 5	1268 ± 5	1226 ± 5	89.2 ± 6.3	36.9 ± 2.3	20.5 ± 1.3	12.3 ± 0.8
10000 kPa, x2 = 0.44	1346 ± 5	1288 ± 5	1223 ± 5	1162 ± 5	43.9 ± 2.7	24.7 ± 1.5	16.1 ± 1	10.7 ± 0.7
15000 kPa, x2 = 0	1377 ± 6	1362 ± 6	1346 ± 5	1330 ± 5	468 ± 71	140 ± 12	61 ± 3.8	29.3 ± 1.8
15000 kPa, x2 = 0.056	1374 ± 6	1356 ± 5	1338 ± 5	1319 ± 5	397 ± 56	125 ± 10	51.9 ± 3.2	26.4 ± 1.7
15000 kPa, x2 = 0.123	1371 ± 6	1351 ± 5	1330 ± 5	1310 ± 5	287 ± 35	90.1 ± 6.4	42.8 ± 2.7	22.6 ± 1.4
15000 kPa, x2 = 0.229	1365 ± 6	1344 ± 5	1321 ± 5	1299 ± 5	144 ± 13	55.8 ± 3.4	28.3 ± 1.8	16.5 ± 1
15000 kPa, x2 = 0.332	1358 ± 5	1337 ± 5	1308 ± 5	1284 ± 5	91.9 ± 6.5	39.9 ± 2.5	21.1 ± 1.3	12.7 ± 0.8
15000 kPa, x2 = 0.44	1351 ± 5	1323 ± 5	1286 ± 5	1255 ± 5	45.9 ± 2.8	24.8 ± 1.5	16.5 ± 1	10.8 ± 0.7
20000 kPa, x2 = 0	1379 ± 6	1364 ± 6	1349 ± 5	1332 ± 5	504 ± 78	151 ± 14	63.2 ± 4	30.5 ± 1.9
20000 kPa, x2 = 0.056	1377 ± 6	1360 ± 6	1343 ± 5	1325 ± 5	424 ± 61	132 ± 11	54.5 ± 3.3	28 ± 1.8
20000 kPa, x2 = 0.123	1375 ± 6	1356 ± 5	1338 ± 5	1319 ± 5	310 ± 40	92.4 ± 6.7	44.2 ± 2.8	23.4 ± 1.5
20000 kPa, x2 = 0.229	1368 ± 6	1350 ± 5	1329 ± 5	1310 ± 5	150 ± 14	61.2 ± 3.8	29.1 ± 1.8	16.9 ± 1.1
20000 kPa, x2 = 0.332	1362 ± 5	1342 ± 5	1319 ± 5	1298 ± 5	100 ± 7	41.6 ± 2.6	21.7 ± 1.3	12.8 ± 0.8
20000 kPa, x2 = 0.44	1355 ± 5	1330 ± 5	1304 ± 5	1278 ± 5	46.8 ± 2.9	26.8 ± 1.7	17 ± 1.1	10.9 ± 0.7
